Assay results published in patent publication US20030171218A1, “Substituted 3-heteroaryl(amino- or oxy)pyrrolidin-2-ones, their preparation and use as herbicides or plant growth regulators” (priority 2001, published 2003).

Experiments:
[1] = test system: weed plants such as Digitaria sanguinalis, Echinochloa crus-galli, Setaria faberi, Setaria viridis, Sorghum halepense, Abutilon theophrasti, Amaranthum …; assay: Pre-emergence effect on weeds (greenhouse pot test); assay type: in vivo, monocotyledonous and dicotyledonous weed plants; settings: application rate of 1 kg or less of active substance per hectare; scored visually after 3 to 4 weeks by comparison with untreated controls
Source text: Seeds or rhizome pieces of monocotyledonous and dicotyledonous weed plants are placed in sandy loam soil in plastic pots and covered with soil. The compounds according to the invention which are formulated in the form of wettable powders or emulsion concentrates are then applied to the surface of the soil cover in the form of aqueous suspensions or emulsions at an application rate of 600 to 800 l of water/ha (converted), in various dosages.
After the treatment, the pots are placed in a greenhouse and kept under good growth conditions for the weeds. After the test plants have emerged, the damage to the plants or the negative effect on the emergence is scored visually after a test period of 3 to 4 weeks by comparison with untreated controls. As shown by the test results, compounds according to the invention have good herbicidal pre-emergence activity against a broad spectrum of weed grasses and broad-leafed weeds.

[2] = test system: harmful plants such as Digitaria sanguinalis, Echinochloa crus-galli, Setaria faberi, Setaria viridis, Sorghum halepense, Abutilon theophrasti, Amaranthum …; assay: Post-emergence effect on weeds (greenhouse pot test); assay type: in vivo, monocotyledonous and dicotyledonous weeds; settings: application rate of 1 kg and less of active substance per hectare; treated at three-leaf stage; scored visually after about 3 to 4 weeks by comparison with untreated controls
Protocol: Seeds or rhizome pieces of monocotyledonous and dicotyledonous weeds are placed in sandy loam soil in plastic pots, covered with soil and grown in a greenhouse under good growth conditions. Three weeks after sowing, the test plants are treated at the three-leaf stage. The compounds according to the invention which were formulated as wettable powders or emulsion concentrates are sprayed, at various dosages, onto the green parts of the plants at an application rate of 600 to 800 l of water/ha (converted). After the test plants have remained in the greenhouse for about 3 to 4 weeks under optimum growth conditions, the effect of the preparations is scored visually by comparison with untreated controls. The agents according to the invention also have good herbicidal activity post-emergence against a broad spectrum of economically important weed grasses and broad-leafed weeds.

SMILES | herbicidal activity pre-emergence [1] | herbicidal activity post-emergence [2]
Cc1nc(N)nc(NC2CCN(c3cccc(F)c3)C2=O)n1 (stereo not shown) [Example A1] | very good herbicidal activity | very good herbicidal activity
Cc1nc(N)nc(NC2CCN(c3ccccc3)C2=O)n1 (stereo not shown) [Example A2] | very good herbicidal activity | very good herbicidal activity
Cc1nc(N)nc(NC2CCN(c3cccc(C(F)(F)F)c3)C2=O)n1 (stereo not shown) [Example A3] | very good herbicidal activity | very good herbicidal activity
Cc1cccc(N2CCC(Nc3nc(C)nc(N)n3)C2=O)c1 (stereo not shown) [Example A4] | very good herbicidal activity | very good herbicidal activity
Cc1cc(C)cc(N2CCC(Nc3nc(C)nc(N)n3)C2=O)c1 (stereo not shown) [Example A5] | very good herbicidal activity | very good herbicidal activity
Cc1nc(N)nc(NC2CCN(c3ccc(F)c(C)c3)C2=O)n1 (stereo not shown) [Example A6] | very good herbicidal activity | very good herbicidal activity
COc1cccc(N2CCC(Nc3nc(C)nc(N)n3)C2=O)c1 (stereo not shown) [Example A7] | very good herbicidal activity | very good herbicidal activity
Cc1nc(N)nc(NC2CCN(c3cccc(OC(F)(F)F)c3)C2=O)n1 (stereo not shown) [Example A8] | very good herbicidal activity | very good herbicidal activity
Cc1nc(N)nc(NC2CCN(c3cccc(Cl)c3)C2=O)n1 (stereo not shown) [Example A9] | very good herbicidal activity | very good herbicidal activity
CC(F)c1nc(N)nc(NC2CCN(c3cccc(F)c3)C2=O)n1 (stereo not shown) [Example A10] | very good herbicidal activity | very good herbicidal activity
CC(F)c1nc(N)nc(NC2CCN(c3ccccc3)C2=O)n1 (stereo not shown) [Example A11] | very good herbicidal activity | very good herbicidal activity
CC(F)c1nc(N)nc(NC2CCN(c3cccc(C(F)(F)F)c3)C2=O)n1 (stereo not shown) [Example A12] | very good herbicidal activity | very good herbicidal activity
Cc1cccc(N2CCC(Nc3nc(N)nc(C(C)F)n3)C2=O)c1 (stereo not shown) [Example A13] | very good herbicidal activity | very good herbicidal activity
Cc1cc(C)cc(N2CCC(Nc3nc(N)nc(C(C)F)n3)C2=O)c1 (stereo not shown) [Example A14] | very good herbicidal activity | very good herbicidal activity
Cc1cc(N2CCC(Nc3nc(N)nc(C(C)F)n3)C2=O)ccc1F (stereo not shown) [Example A15] | very good herbicidal activity | very good herbicidal activity
COc1cccc(N2CCC(Nc3nc(N)nc(C(C)F)n3)C2=O)c1 (stereo not shown) [Example A16] | very good herbicidal activity | very good herbicidal activity
CC(F)c1nc(N)nc(NC2CCN(c3cccc(OC(F)(F)F)c3)C2=O)n1 (stereo not shown) [Example A17] | very good herbicidal activity | very good herbicidal activity
CC(F)c1nc(N)nc(NC2CCN(c3cccc(Cl)c3)C2=O)n1 (stereo not shown) [Example A18] | very good herbicidal activity | very good herbicidal activity

SMILES | herbicidal activity pre-emergence [1] | herbicidal activity post-emergence [2]
CC(C)c1nc(N)nc(NC2CCN(c3cccc(F)c3)C2=O)n1 (stereo not shown) [Example A19] | very good herbicidal activity | very good herbicidal activity
CC(C)c1nc(N)nc(NC2CCN(c3cccc(C(F)(F)F)c3)C2=O)n1 (stereo not shown) [Example A21] | very good herbicidal activity | very good herbicidal activity
Cc1cccc(N2CCC(Nc3nc(N)nc(C(C)C)n3)C2=O)c1 (stereo not shown) [Example A22] | very good herbicidal activity | very good herbicidal activity
Cc1cc(C)cc(N2CCC(Nc3nc(N)nc(C(C)C)n3)C2=O)c1 (stereo not shown) [Example A23] | very good herbicidal activity | very good herbicidal activity
Cc1cc(N2CCC(Nc3nc(N)nc(C(C)C)n3)C2=O)ccc1F (stereo not shown) [Example A24] | very good herbicidal activity | very good herbicidal activity
COc1cccc(N2CCC(Nc3nc(N)nc(C(C)C)n3)C2=O)c1 (stereo not shown) [Example A25] | very good herbicidal activity | very good herbicidal activity
CC(C)c1nc(N)nc(NC2CCN(c3cccc(OC(F)(F)F)c3)C2=O)n1 (stereo not shown) [Example A26] | very good herbicidal activity | very good herbicidal activity
CC(C)c1nc(N)nc(NC2CCN(c3cccc(Cl)c3)C2=O)n1 (stereo not shown) [Example A27] | very good herbicidal activity | very good herbicidal activity
CC(C)(F)c1nc(N)nc(NC2CCN(c3cccc(F)c3)C2=O)n1 (stereo not shown) [Example A28] | very good herbicidal activity | very good herbicidal activity
Cc1cc(N2CCC(Nc3nc(N)nc(C(C)(C)F)n3)C2=O)ccc1F (stereo not shown) [Example A29] | very good herbicidal activity | very good herbicidal activity
COc1cccc(N2CCC(Nc3nc(N)nc(C(C)(C)F)n3)C2=O)c1 (stereo not shown) [Example A30] | very good herbicidal activity | very good herbicidal activity
CC(C)(F)c1nc(N)nc(NC2CCN(c3cccc(OC(F)(F)F)c3)C2=O)n1 (stereo not shown) [Example A31] | very good herbicidal activity | very good herbicidal activity
CC(C)(F)c1nc(N)nc(NC2CCN(c3cccc(C(F)(F)F)c3)C2=O)n1 (stereo not shown) [Example A32] | very good herbicidal activity | very good herbicidal activity
Cc1cccc(N2CCC(Nc3nc(N)nc(C(C)(C)F)n3)C2=O)c1 (stereo not shown) [Example A33] | very good herbicidal activity | very good herbicidal activity
Cc1cc(C)cc(N2CCC(Nc3nc(N)nc(C(C)(C)F)n3)C2=O)c1 (stereo not shown) [Example A34] | very good herbicidal activity | very good herbicidal activity
CC(C)(F)c1nc(N)nc(NC2CCN(c3ccccc3)C2=O)n1 (stereo not shown) [Example A35] | very good herbicidal activity | very good herbicidal activity
CC(C)(F)c1nc(N)nc(NC2CCN(c3cccc(Cl)c3)C2=O)n1 (stereo not shown) [Example A36] | very good herbicidal activity | very good herbicidal activity
